≈ marks a conversion by molar mass, not a printed value. Like-named read-outs stand apart in the source and are kept apart here.
Columns and labels:
Test in all cases: Minimum inhibitory concentration (agar 2-fold dilution)
Assay type in all cases: cell-based
[1] = tested on: Acinetobacter calcoaceticus 15473A; conditions: read-out: Minimum Inhibitory Concentration
Method: (§1) The minimum inhibitory concentration was determined by diluting the test compounds according to 2-fold dilution, suspending them in Muller-Hinton agar medium, inoculating 2 μl of the suspension containing the test strains having 10^7 CFU (Colony Forming Unit) per 1 ml into the medium and then culturing the test strains at 37° C. for 20 hours.

[2] = tested on: Staphylococcus aureus 77; conditions: read-out: Minimum Inhibitory Concentration
Method: as §1

[3] = tested on: Serratia marcescens 1826E; conditions: read-out: Minimum Inhibitory Concentration
Method: as §1

[4] = tested on: Staphylococcus aureus 241; conditions: read-out: Minimum Inhibitory Concentration
Method: as §1

[5] = tested on: Pseudomonas aeruginosa 1912E; conditions: read-out: Minimum Inhibitory Concentration
Method: as §1

[6] = tested on: Salmonella typhimurium 14028A; conditions: Salmonella enterica, read-out: Minimum Inhibitory Concentration
Method: as §1

[7] = tested on: Escherichia coli TEM5 3739E; conditions: TEM53739E, 20 h, read-out: Minimum Inhibitory Concentration
Method: as §1

[8] = tested on: Escherichia coli TEM7 3457E; conditions: TEM73457E, 20 h, read-out: Minimum Inhibitory Concentration
Method: as §1

[9] = tested on: Escherichia coli TEM1 1193E; conditions: TEM11193E, 20 h, read-out: Minimum Inhibitory Concentration
Method: as §1

[10] = tested on: Escherichia coli 3190Y; conditions: read-out: Minimum Inhibitory Concentration
Method: as §1

[11] = tested on: Escherichia coli TEM3 3455E; conditions: TEM33455E, 20 h, read-out: Minimum Inhibitory Concentration
Method: as §1

[12] = tested on: Klebsiella aerogenes K1 + 1082E; conditions: 20 h, read-out: Minimum Inhibitory Concentration
Method: as §1

[13] = tested on: Pseudomonas aeruginosa 10145; conditions: read-out: Minimum Inhibitory Concentration
Method: as §1

[14] = tested on: Escherichia coli 10536; conditions: read-out: Minimum Inhibitory Concentration
Method: as §1

[15] = tested on: Proteus vulgaris 6059A; conditions: read-out: Minimum Inhibitory Concentration
Method: as §1

[16] = tested on: Escherichia coli TEM9 2639E; conditions: TEM92639E, 20 h, read-out: Minimum Inhibitory Concentration
Method: as §1

[17] = tested on: Escherichia coli 851E; conditions: E. coli 851E, Muller-Hinton agar, 37° C., 20 hours
Method: as §1

[18] = tested on: Pseudomonas aeruginosa 6065; conditions: read-out: Minimum Inhibitory Concentration
Method: as §1

[19] = tested on: Staphylococcus aureus epidermidis 887E; conditions: read-out: Minimum Inhibitory Concentration
Method: as §1

[20] = tested on: Streptococcus faecalis 29212A; conditions: Enterococcus faecalis, read-out: Minimum Inhibitory Concentration
Method: as §1

[21] = tested on: Staphylococcus aureus giorgio; conditions: read-out: Minimum Inhibitory Concentration
Method: as §1

[22] = tested on: Enterobacter cloacae IND + VE 1194E; conditions: read-out: Minimum Inhibitory Concentration
Method: as §1

[23] = tested on: Staphylococcus aureus 6538P; conditions: read-out: Minimum Inhibitory Concentration
Method: as §1

[24] = tested on: Enterobacter cloacae P99; conditions: P99, 20 h, read-out: Minimum Inhibitory Concentration
Method: as §1

[25] = tested on: Klebsiella aerogenes SHV-1 1976E; conditions: SHV11976E
Method: as §1

[26] = tested on: Citrobacter diversus 2046E; conditions: Citrobacter koseri, read-out: Minimum Inhibitory Concentration
Method: as §1

[27] = A. calcoaceticus 15473A, Muller-Hinton agar, 37° C., 20 hours
[28] = Staphylococcus aureus, S. aureus 77, Muller-Hinton agar, 37° C., 20 hours
[29] = S. marcescens 1826E, Muller-Hinton agar, 37° C., 20 hours
[30] = Staphylococcus aureus, S. aureus 241, Muller-Hinton agar, 37° C., 20 hours
[31] = P. aeruginosa 1912E, Muller-Hinton agar, 37° C., 20 hours
[32] = S. typhimurium 14028A, Muller-Hinton agar, 37° C., 20 hours
[33] = E. coli 3190Y, Muller-Hinton agar, 37° C., 20 hours
[34] = Pseudomonas aeruginosa, P. aeruginosa 10145, Muller-Hinton agar, 37° C., 20 hours
[35] = Escherichia coli, E. coli 10536, Muller-Hinton agar, 37° C., 20 hours
[36] = P. vulgaris 6059A, Muller-Hinton agar, 37° C., 20 hours
[37] = Pseudomonas aeruginosa, P. aeruginosa 6065, Muller-Hinton agar, 37° C., 20 hours
[38] = S. aureus epidermidis 887E, Muller-Hinton agar, 37° C., 20 hours
[39] = S. faecalis 29212A, Muller-Hinton agar, 37° C., 20 hours
[40] = S. aureus giorgio, Muller-Hinton agar, 37° C., 20 hours
[41] = E. cloacae IND + VE 1194E, Muller-Hinton agar, 37° C., 20 hours
[42] = S. aureus 6538P, Muller-Hinton agar, 37° C., 20 hours
[43] = K. aerogenes SHV-1 1976E, Muller-Hinton agar, 37° C., 20 hours
[44] = C. diversus 2046E, Muller-Hinton agar, 37° C., 20 hours

| Structure (SMILES) | MIC [7] [µg/mL] | MIC [8] [µg/mL] | MIC [9] [µg/mL] | MIC [11] [µg/mL] | MIC [12] [µg/mL] | MIC [16] [µg/mL] | MIC [17] [µg/mL] | MIC [24] [µg/mL] | MIC [1, 27] [µg/mL] | MIC [2, 28] [µg/mL] | MIC [3, 29] [µg/mL] | MIC [4, 30] [µg/mL] | MIC [5, 31] [µg/mL] | MIC [6, 32] [µg/mL] | MIC [10, 33] [µg/mL] | MIC [13, 34] [µg/mL] | MIC [14, 35] [µg/mL] | MIC [15, 36] [µg/mL] | MIC [18, 37] [µg/mL] | MIC [19, 38] [µg/mL] | other results |
| --- | --- | --- | --- | --- | --- | --- | --- | --- | --- | --- | --- | --- | --- | --- | --- | --- | --- | --- | --- | --- | --- |
| CC(C)(O/N=C(\C(=O)N[C@@H]1C(=O)N2C(C(=O)[O-])=C(C[n+]3ccccc3)CS[C@H]12)c1csc(N)n1)C(=O)O [CAZ, Ceftazidime, reference compound] | 8 (≈ 14.6 µM) | 16 (≈ 29.3 µM) | 0.25 (≈ 0.457 µM) | 8 (≈ 14.6 µM) | 0.5 (≈ 0.915 µM) | > 128 | 0.063 (≈ 0.115 µM) | 64 (≈ 117 µM) | – | – | – | – | – | – | – | – | – | – | – | – | MIC ([1]; 15473A, 20 h): 2 µg/mL (≈ 3.66 µM); MIC ([2]; Staphylococcus aureus, 77, 20 h): 32 µg/mL (≈ 58.5 µM); MIC ([3]; 1826E, 20 h): 0.25 µg/mL (≈ 0.457 µM); MIC ([4]; Staphylococcus aureus, 241, 20 h): > 128 µg/mL; MIC ([5]; 1912E, 20 h): 1 µg/mL (≈ 1.83 µM); MIC ([6]; TYPHIMURIUM, 20 h): 0.25 µg/mL (≈ 0.457 µM); MIC ([10]; 3190Y, 20 h): 0.063 µg/mL (≈ 0.115 µM); MIC ([13]; Pseudomonas aeruginosa, 10145, 20 h): 2 µg/mL (≈ 3.66 µM); MIC ([14]; Escherichia coli, 10536, 20 h): 0.13 µg/mL (≈ 0.238 µM); MIC ([15]; 6059A, 20 h): 0.063 µg/mL (≈ 0.115 µM); MIC ([18]; Pseudomonas aeruginosa, 6065, 20 h): 16 µg/mL (≈ 29.3 µM); MIC ([19]; 20 h): > 128 µg/mL; MIC ([20]; 29212A, 20 h): > 128 µg/mL; MIC ([21]; 20 h): 4 µg/mL (≈ 7.32 µM); MIC ([22]; 20 h): 128 µg/mL (≈ 234 µM); MIC ([23]; 6538P, 20 h): 16 µg/mL (≈ 29.3 µM); MIC ([25]; 20 h): 0.25 µg/mL (≈ 0.457 µM); MIC ([26]; 2046E, 20 h): 0.5 µg/mL (≈ 0.915 µM) |
| Nc1nc(/C(=N/O[C@@H](C(=O)O)c2ccc(O)c(O)c2)C(=O)N[C@@H]2C(=O)N3C(C(=O)[O-])=C(/C=C/C[n+]4cnc(N)c5c4CCC5)CS[C@H]23)cs1 [Compound I-3b, 7-[(Z)-2-(2-aminothiazol-4-yl)-2-(α-carboxy-3,4-dihydroxybenzyloxyimino)acetamido]-3-[(E)-3-(4-amino-5,6-cyclopentanopyrimidinium-1-yl)-1-propen-1-yl]-3-cephem-4-carboxylate] | 2 (≈ 2.82 µM) | 0.5 (≈ 0.705 µM) | 0.25 (≈ 0.353 µM) | 0.5 (≈ 0.705 µM) | 1 (≈ 1.41 µM) | 2 (≈ 2.82 µM) | 0.25 (≈ 0.353 µM) | 64 (≈ 90.3 µM) | 4 (≈ 5.64 µM) | 4 (≈ 5.64 µM) | 4 (≈ 5.64 µM) | > 128 | 8 (≈ 11.3 µM) | 0.13 (≈ 0.183 µM) | 0.25 (≈ 0.353 µM) | 8 (≈ 11.3 µM) | 0.13 (≈ 0.183 µM) | 1 (≈ 1.41 µM) | 64 (≈ 90.3 µM) | 64 (≈ 90.3 µM) | MIC [20, 39]: 8 µg/mL (≈ 11.3 µM); MIC [21, 40]: 0.5 µg/mL (≈ 0.705 µM); MIC [22, 41]: 32 µg/mL; MIC [23, 42]: 0.5 µg/mL (≈ 0.705 µM); MIC [25, 43]: 1 µg/mL (≈ 1.41 µM); MIC [26, 44]: 4 µg/mL (≈ 5.64 µM) |
| Cc1c(N)nc[n+](C/C=C/C2=C(C(=O)[O-])N3C(=O)[C@@H](NC(=O)/C(=N\O[C@@H](C(=O)O)c4ccc(O)c(O)c4)c4csc(N)n4)[C@H]3SC2)c1N [Compound I-4b, 7-[(Z)-2-(2-aminothiazol-4-yl)-2-(α-carboxy-3,4-dihydroxybenzyloxyimino)acetamido]-3-[(E)-3-(4,6-diamino-5-methylpyrimidinium-1-yl)-1-propen-1-yl]-3-cephem-4-carboxylate] | 1 (≈ 1.43 µM) | 0.25 (≈ 0.358 µM) | 0.25 (≈ 0.358 µM) | 0.5 (≈ 0.717 µM) | 2 (≈ 2.87 µM) | 1 (≈ 1.43 µM) | 0.13 (≈ 0.186 µM) | 16 (≈ 22.9 µM) | 4 (≈ 5.73 µM) | 2 (≈ 2.87 µM) | 2 (≈ 2.87 µM) | 128 (≈ 183 µM) | 8 (≈ 11.5 µM) | 0.13 (≈ 0.186 µM) | 0.13 (≈ 0.186 µM) | 4 (≈ 5.73 µM) | 0.13 (≈ 0.186 µM) | 1 (≈ 1.43 µM) | 16 (≈ 22.9 µM) | 32 (≈ 45.9 µM) | MIC [20, 39]: 8 µg/mL (≈ 11.5 µM); MIC [21, 40]: 0.5 µg/mL (≈ 0.717 µM); MIC [22, 41]: 8 µg/mL; MIC [23, 42]: 0.5 µg/mL (≈ 0.717 µM); MIC [25, 43]: 1 µg/mL (≈ 1.43 µM); MIC [26, 44]: 4 µg/mL (≈ 5.73 µM) |
| Nc1cc[n+](C/C=C/C2=C(C(=O)[O-])N3C(=O)[C@@H](NC(=O)/C(=N\O[C@@H](C(=O)O)c4ccc(O)c(O)c4)c4csc(N)n4)[C@H]3SC2)cn1 [Compound I-2b, 7-[(Z)-2-(2-aminothiazol-4-yl)-2-(α-carboxy-3,4-dihydroxybenzyloxyimino)acetamido]-3-[(E)-3-(4-aminopyrimidinium-1-yl)-1-propen-1-yl]-3-cephem-4-carboxylate] | 0.1 (≈ 0.15 µM) | 0.25 (≈ 0.374 µM) | 0.25 (≈ 0.374 µM) | 0.25 (≈ 0.374 µM) | 2 (≈ 2.99 µM) | 0.5 (≈ 0.748 µM) | 0.13 (≈ 0.194 µM) | 32 (≈ 47.9 µM) | 2 (≈ 2.99 µM) | 2 (≈ 2.99 µM) | 1 (≈ 1.5 µM) | 128 (≈ 191 µM) | 8 (≈ 12 µM) | 0.25 (≈ 0.374 µM) | 0.13 (≈ 0.194 µM) | 8 (≈ 12 µM) | 0.13 (≈ 0.194 µM) | 0.5 (≈ 0.748 µM) | 64 (≈ 95.7 µM) | 8 (≈ 12 µM) | MIC [20, 39]: 4 µg/mL (≈ 5.98 µM); MIC [21, 40]: 0.25 µg/mL (≈ 0.374 µM); MIC [22, 41]: 16 µg/mL; MIC [23, 42]: 0.5 µg/mL (≈ 0.748 µM); MIC [25, 43]: 1 µg/mL (≈ 1.5 µM); MIC [26, 44]: 4 µg/mL (≈ 5.98 µM) |
